Experimental data from US20250206761A1, “HALOINDOLE MACROCYCLIC COMPOUNDS FOR THE TREATMENT OF CANCER” (Hoffmann-La Roche Inc., priority 2022, published 2025).
pIC50: −log10 of the molar value. Blank lines part the entries; values can stand above or below the compound they belong to.

Experiments:
[1] = tested on: NCI-H358 (ATCC-CRL5807) cells; assay: Cell viability assay, G12C (NCI-H358); type: cell-based, human; details: Homo sapiens; KRAS cell viability, NCI-H358, 72 hrs, Cell Counting Kit-8
Outline: (§1)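 Cells seeded at 5,000/well (NCI-H358) or 2,000/well (AGS, SW620), treated next day at 0.5% final DMSO for 72 h. Viability read by CCK-8 (OD450 minus OD650) after 2 h; IC50 from 4-parameter sigmoidal fit.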

[2] = tested on: AGS (ATCC-CRL-1739) cells; assay: Cell viability assay, G12D (AGS); type: cell-based, human; details: Homo sapiens, KRAS cell viability, 72 hrs, Cell Counting Kit-8
Outline: as §1

SW620 (ATCC-CCL-227) = assay: Cell viability assay, G12V (SW620); type: cell-based, human; details: Homo sapiens, SW-620; KRAS cell viability, SW620, 72 hrs, Cell Counting Kit-8
Outline: as §1

KRAS G12C-BRAF complex [3] = molecular target: T1, KRAS G12C-BRAF complex (Homo sapiens (Human), UniProt P01116+P62937, G12C); assay: KRAS G12C-BRAF NanoBit assay; type: cell-based; details: HEK293 cells, 3 hours of incubation
T1 sequence (P01116-2 other isoform, or with tags, fused parts or gaps G12C): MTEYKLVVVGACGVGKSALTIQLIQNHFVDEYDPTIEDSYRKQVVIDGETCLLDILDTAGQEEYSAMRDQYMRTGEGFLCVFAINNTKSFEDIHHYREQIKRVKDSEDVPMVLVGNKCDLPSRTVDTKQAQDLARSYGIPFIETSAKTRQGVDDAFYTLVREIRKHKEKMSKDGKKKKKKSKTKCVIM
T1 sequence (P62937 whole entry): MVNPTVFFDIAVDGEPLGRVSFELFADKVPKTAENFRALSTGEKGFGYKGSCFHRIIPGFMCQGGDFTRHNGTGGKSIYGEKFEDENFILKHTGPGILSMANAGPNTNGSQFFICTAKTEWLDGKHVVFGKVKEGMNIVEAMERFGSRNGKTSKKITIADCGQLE
Protocol: This assay is to measure the ability of tested compounds in disruption of the KRAS G12C-BRAF complex at the cellular level, we established the NanoBit cellular assay in mammalian HEK293 (ATCC) cells.
HEK293 cells were grown and maintained using DMEM medium (Thermo Fisher Scientific) with 10% fetal bovine serum and 1% penicillin/streptomycin. Both KRAS G12C and BRAF RBD were cloned into the NanoBit vectors ([…] vectors system, Promega) with the orientations SnmBit-KRAS G12C and BRAF RBD-LgBit, respectively, and co-transfected into HEK293 cells. Cells were then selected with 100 μg/mL Hygromycin B (10687010, Thermo Fisher) and Blasticidin (5 μg/mL) for 4 weeks to get the stable cell pool.
On the day of the assay, 75 nL of compound solution was presented in a 384-well assay plate as a 16-point 3-fold dilution starting from a final concentration of 30 μM in DMSO. Then cells were seeded at 10,000 cells/25 μL/well in a 384-well plate. After 3 hours of incubation, 6 μL of volume of Nano-Glo® Live Cell Substrate (Promega) was added into each well. Monitor luminescence using ultra384 model in Envision at 20 minutes. Compounds that facilitate disruption of the KRAS G12C-BRAF RBD complex were identified as those eliciting a decrease of luminescence relative to DMSO control wells.

[4] = tested on: phosphorylation of ERK, KRAS G12C in NCJ-H358 cells; assay: pERK inhibition assay, KRAS G12C; type: cell-based, human; details: 4 hours
Outline: (§2)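 Plate cells, attach overnight; add compound (0.5% DMSO) for 4 h; fix in 4% formaldehyde, permeabilize with chilled methanol; block; incubate pERK antibody overnight at 4 °C, then HRP secondary; develop with TMB, stop, read OD450; fit 4-parameter curve for IC50.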

[5] = tested on: phosphorylation of ERK, KRAS G12D in AGS cells; assay: pERK inhibition assay, KRAS G12D; type: cell-based, human; details: 4 hours
Outline: as §2

[6] = tested on: phosphorylation of ERK, KRAS G12V in SW620; assay: pERK inhibition assay, KRAS G12V; type: cell-based, human
Outline: as §2

KRAS G12C-BRAF complex [7] = molecular target: T1, KRAS G12C-BRAF complex; assay: KRAS-BRAF with CYPA (500 nM) interaction assay (TR-FRET), G12C; type: biochemical
[8] = molecular target: KRAS G12D binding to BRAF (Homo sapiens (Human), UniProt P01116+P62937, G12D); assay: KRAS-BRAF with CYPA (500 nM) interaction assay (TR-FRET), G12D; type: biochemical
Chain of KRAS G12D binding to BRAF (P01116-2 other isoform, or with tags, fused parts or gaps G12D): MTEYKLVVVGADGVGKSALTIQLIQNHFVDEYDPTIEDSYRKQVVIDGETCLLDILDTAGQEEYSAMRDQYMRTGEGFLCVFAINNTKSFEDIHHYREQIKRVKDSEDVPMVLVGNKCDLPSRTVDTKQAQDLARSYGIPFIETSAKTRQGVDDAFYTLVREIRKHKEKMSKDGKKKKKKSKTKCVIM
Chain of KRAS G12D binding to BRAF (P62937 whole entry): as the sequence (P62937 whole entry) above

[9] = molecular target: KRAS G12V binding to BRAF (Homo sapiens (Human), UniProt P01116+P62937, G12V); assay: KRAS-BRAF with CYPA (500 nM) interaction assay (TR-FRET), G12V; type: biochemical
Chain of KRAS G12V binding to BRAF (P01116-2 other isoform, or with tags, fused parts or gaps G12V): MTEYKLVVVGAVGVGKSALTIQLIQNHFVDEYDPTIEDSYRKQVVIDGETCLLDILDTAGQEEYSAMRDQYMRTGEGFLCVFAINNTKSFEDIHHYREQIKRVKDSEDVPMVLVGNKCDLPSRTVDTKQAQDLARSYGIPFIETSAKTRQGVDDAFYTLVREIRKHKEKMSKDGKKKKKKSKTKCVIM
Chain of KRAS G12V binding to BRAF (P62937 whole entry): as the sequence (P62937 whole entry) above
Outline: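 A TR-FRET assay measured how compound, in the presence of CYPA, disrupts binding of GMPPNP-loaded 6His-KRAS G12V to BRAF. The buffer contained 25 mM HEPES PH=7.4, 0.002% Tween20, 0.1% BSA, 100 mM NaCl, 5 mM MgCl2 and 10 μM GMPPNP. Compounds ran as a 16-point 3-fold dilution series from 10 μM for 3 hours.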

[10] = Homo sapiens, SW-620, SW620, 4 hours

Compound: CO[C@@H](C)c1ncc(N2CCN(C)CC2)cc1-c1c2c3cc(c(F)cc3n1CC(F)(F)F)-c1csc(n1)C[C@H](NC(=O)[C@H](COC1CN(C(=O)[C@H](F)Cl)C1)C(C)C)C(=O)N1CCC[C@H](N1)C(=O)OCC(C)(C)C2 (atropisomer, axis not shown; (M)) [Example 14, (2S)-2-[[1-[(2R)-2-chloro-2-fluoro-acetyl]azetidin-3-yl]oxymethyl]-N-[(7S,13S)-24-fluoro-(20M)-20-[2-[(1S)-1-methoxyethyl]-5-(4-methylpiperazin-1-yl)-3-pyridyl]-17,17-dimethyl-8,14-dioxo-21-(2,2,2-trifluoroethyl)-15-oxa-4-thia-9,21,27,28-tetrazapentacyclo[17.5.2.1^2,5.1^9,13.0^22,26]octacosa-1(25),2,5(28),19,22(26),23-hexaen-7-yl]-3-methyl-butanamide]
pIC50 (KRAS G12C-BRAF complex [3]): 6.97 | pIC50 ([4]; Homo sapiens): 7.48 | pIC50 ([5]; Homo sapiens): 6.77 | pIC50 [6, 10]: 7.11

Compound: CCn1c(-c2cc(N3CCN(C)CC3)cnc2[C@H](C)OC)c2c3cc(c(F)cc31)-c1csc(n1)C[C@H](NC(=O)[C@H](C(C)C)N1CCC[C@]3(CCN(C(=O)[C@@H](F)Cl)C3)C1=O)C(=O)N1CCC[C@H](N1)C(=O)OCC(C)(C)C2 [Example 22, (2S)-2-[(5R)-2-[(2S)-2-chloro-2-fluoro-acetyl]-6-oxo-2,7-diazaspiro[4.5]decan-7-yl]-N-[(7S,13S)-21-ethyl-24-fluoro-(20M)-20-[2-[(1S)-1-methoxyethyl]-5-(4-methylpiperazin-1-yl)-3-pyridyl]-17,17-dimethyl-8,14-dioxo-15-oxa-4-thia-9,21,27,28-tetrazapentacyclo[17.5.2.1^2,5.1^9,13.0^22,26]octacosa-1(25),2,5(28),19,22(26),23-hexaen-7-yl]-3-methyl-butanamide]
pIC50 (KRAS G12C-BRAF complex [3]): 6.68 | pIC50 (KRAS G12C-BRAF complex [7]): 6.70 | pIC50 [8]: < 5.00 | pIC50 [9]: < 5.00 | pIC50 [4]: 7.28 | pIC50 [5]: 5.97 | pIC50 ([6]; SW620, 4 hours): 5.99

Compound: CO[C@@H](C)c1ncc(N2CCN(C)CC2)cc1-c1c2c3cc(c(F)cc3n1CC(F)(F)F)-c1csc(n1)C[C@H](NC(=O)[C@@H](COC1CN(C(=O)[C@H](F)Cl)C1)C(C)C)C(=O)N1CCC[C@H](N1)C(=O)OCC(C)(C)C2 (atropisomer, axis not shown; (M)) [Example 13, (2R)-2-[[1-[(2R)-2-chloro-2-fluoro-acetyl]azetidin-3-yl]oxymethyl]-N-[(7S,13S)-24-fluoro-(20M)-20-[2-[(1S)-1-methoxyethyl]-5-(4-methylpiperazin-1-yl)-3-pyridyl]-17,17-dimethyl-8,14-dioxo-21-(2,2,2-trifluoroethyl)-15-oxa-4-thia-9,21,27,28-tetrazapentacyclo-[17.5.2.1^2,5.1^9,13.0^22,26]octacosa-1(25),2,5(28),19,22(26),23-hexaen-7-yl]-3-methyl-butanamide]
pIC50 [1]: 8.70 | pIC50 [2]: 5.62 | pIC50 (SW620 (ATCC-CCL-227)): 7.64 | pIC50 (KRAS G12C-BRAF complex [3]): 7.57

The remaining lines, values ahead:

pIC50 [1]: 8.30 | pIC50 [2]: 5.82 | pIC50 (SW620 (ATCC-CCL-227)): 6.89 | pIC50 (KRAS G12C-BRAF complex [3]): 7.27 | pIC50 ([4]; Homo sapiens): 7.92 | pIC50 ([5]; Homo sapiens): 6.91 | pIC50 [6, 10]: 7.39
Compound: CO[C@@H](C)c1ncc(N2CCOCC2)cc1-c1c2c3cc(c(F)cc3n1CC(F)(F)F)-c1csc(n1)C[C@H](NC(=O)[C@H](C(C)C)N1CCC3(CN(C(=O)[C@H](F)Cl)C3)C1=O)C(=O)N1CCC[C@H](N1)C(=O)OCC(C)(C)C2 (atropisomer, axis not shown; (M)) [Example 58, (2S)-2-[2-[(2R)-2-chloro-2-fluoro-acetyl]-5-oxo-2,6-diazaspiro[3.4]octan-6-yl]-N-[(7S,13S)-24-fluoro-(20M)-20-[2-[(1S)-1-methoxyethyl]-5-morpholino-3-pyridyl]-17,17-dimethyl-8,14-dioxo-21-(2,2,2-trifluoroethyl)-15-oxa-4-thia-9,21,27,28-tetrazapentacyclo[17.5.2.1^2,5.1^9,13.0^22,26]octacosa-1(25),2,5(28),19,22(26),23-hexaen-7-yl]-3-methyl-butanamide]

pIC50 [1]: 8.52 | pIC50 [2]: 5.89 | pIC50 (SW620 (ATCC-CCL-227)): 7.23 | pIC50 (KRAS G12C-BRAF complex [3]): 7.64 | pIC50 ([4]; Homo sapiens): 8.22 | pIC50 ([5]; Homo sapiens): 7.24 | pIC50 [6, 10]: 7.48
Compound: CO[C@@H](C)c1ncc(N2CCOCC2)cc1-c1c2c3cc(c(F)cc3n1CC(F)(F)F)-c1csc(n1)C[C@H](NC(=O)[C@H](C(C)C)N1CC[C@]3(CCN(C(=O)[C@H](F)Cl)C3)C1=O)C(=O)N1CCC[C@H](N1)C(=O)OCC(C)(C)C2 (atropisomer, axis not shown; (M)) [Example 57, (2S)-2-[(5S)-7-[(2R)-2-chloro-2-fluoro-acetyl]-1-oxo-2,7-diazaspiro[4.4]nonan-2-yl]-N-[(7S,13S)-24-fluoro-(20M)-20-[2-[(1S)-1-methoxyethyl]-5-morpholino-3-pyridyl]-17,17-dimethyl-8,14-dioxo-21-(2,2,2-trifluoroethyl)-15-oxa-4-thia-9,21,27,28-tetrazapentacyclo[17.5.2.1^2,5.1^9,13.0^22,26]octacosa-1(25),2,5(28),19,22(26),23-hexaen-7-yl]-3-methyl-butanamide]

pIC50 [1]: > 9.00 | pIC50 [2]: 5.91 | pIC50 (SW620 (ATCC-CCL-227)): 6.35 | pIC50 (KRAS G12C-BRAF complex [3]): 4.96 | pIC50 ([4]; Homo sapiens): 9.00 | pIC50 ([5]; Homo sapiens): 7.92 | pIC50 [6, 10]: 7.35
Compound: CCn1c(-c2cc(N3CCN(C)CC3)cnc2[C@H](C)OC)c2c3cc(c(F)cc31)-c1csc(n1)C[C@H](NC(=O)[C@H](C(C)C)N1CCC3(CN(C(=O)[C@H](F)Cl)C3)C1=O)C(=O)N1CCC[C@H](N1)C(=O)OCC(C)(C)C2 (atropisomer, axis not shown; (M)) [Example 29, (2S)-2-[2-[(2R)-2-chloro-2-fluoro-acetyl]-5-oxo-2,6-diazaspiro[3.4]octan-6-yl]-N-[(7S,13S)-21-ethyl-24-fluoro-(20M)-20-[2-[(1S)-1-methoxyethyl]-5-(4-methylpiperazin-1-yl)-3-pyridyl]-17,17-dimethyl-8,14-dioxo-15-oxa-4-thia-9,21,27,28-tetrazapentacyclo[17.5.2.1^2,5.1^9,13.0^22,26]octacosa-1(25),2,5(28),19,22(26),23-hexaen-7-yl]-3-methyl-butanamide]
